Each structure is given as a SMILES string.

A short description of the series: gradient 5% acetonitrile 3 min, to 50% in 2 min, to 85% in 15 min, held 3 min, 100 µL/min. The following applies: column: Zorbax Extend-C18 2.1 x 50 mm; eluents: water / acetonitrile, 0.1% formic acid. In a few lines:
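Over 3 months, pure standards in mixtures of ~100 molecules were run by HPLC coupled to a quadrupole time-of-flight mass spectrometer in positive and negative ionization mode. The column was a Zorbax Extend-C18 (2.1 × 50 mm, 1.8 μm) at 100 μL/min, eluted with water and acetonitrile each holding 0.1% formic acid, with 40 μL dead and 900 μL dwell volumes. Retention time was determined from adduct peaks chosen by software and checked manually.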
In the case of `Cc1ccc(CNC(=O)Cn2c(=O)c3cc(-c4cccs4)nn3c3ncccc32)cc1`, the RP-LC retention time was determined as 868 s. The result for `CCN1C(=O)NC(c2ccc(Cl)cc2)C2=C1CN(CCC(=O)NCCOC)C2=O` (stereo not given) reads 599 s. The result for `Cc1cc(OCC(=O)Nc2ccc(F)c(Cl)c2)nc(N2CCN(c3ccccc3)CC2)n1` reads 956 s; that for `Cc1nn2c(CNC(=O)c3ccccc3C(F)(F)F)c(C)nc2s1`, 638 s; that for `COc1ccccc1OCC(=O)Nc1ccc2c(c1)C(=O)Nc1cc(Cl)ccc1O2`, 873 s. The result for `COc1ccc(S(=O)(=O)N2C[C@@H](F)C[C@H]2C(=O)N2CCCCC2)cc1Cl` reads 785 s. As for `O=C(NCc1ccc(F)cc1Cl)C1CCCN(c2ncnc3c2oc2ccccc23)C1` (stereo not given), the RP-LC retention time came out at 802 s. The result for `Cc1ccc(NC(=O)N2CCC(n3cnc4c(C)cccc4c3=O)CC2)cc1C` reads 872 s; that for `COc1ccc2[nH]cc(CCN3CC(C(=O)Nc4cc(C)ccc4C)CC3=O)c2c1` (stereo not given), 774 s; that for `Cc1cccc(-c2nnc(-c3nc(NCCc4cnc[nH]4)c4ccccc4n3)o2)c1`, 672 s. The result for `CCN1CCCC1CNC(=O)c1nnc(-c2ccc(S(=O)(=O)N3CCOCC3)cc2)o1` (stereo not given) reads 599 s; that for `CC1CCC(NC(=O)C2CCN(c3nc4ccccc4[nH]3)CC2)CC1` (stereo not given), 649 s. As to `COc1ccc(C2=C(C)C(Nc3ccccc3OC)=NS2(=O)=O)cc1`, the RP-LC retention time stood at 925 s. The result for `COc1ccc(NC(=O)Cn2cnc(-c3ccc(F)cc3)cc2=O)c(OC)c1` reads 754 s; that for `CCCS(=O)(=O)N1CC(c2nc(CCOc3cccc(C)c3)no2)C1`, 995 s. In turn, `Cc1ccn2cc(C(=O)NCCC(C)C)nc2c1` gave an RP-LC retention time of 640 s. The result for `CCn1cc(CCNC(=O)C2CCCC2)c2cccnc21` reads 654 s; that for `CC(C)c1noc(-c2ccnc(-n3cnc(C(=O)N4CCSCC4)c3)c2)n1`, 863 s; that for `CCOc1ccc(Cl)cc1S(=O)(=O)N1CCC(C(=O)Nc2ccc3c(c2)OCCO3)CC1`, 1150 s. The result for `O=S(=O)(c1cccc(C(F)(F)F)c1)N1CCN(c2cnn3cnnc3c2)CC1` reads 668 s. `Cc1cccc(OCc2nc(-c3ccc4ncn(C(C)C)c4c3)no2)c1` registered an RP-LC retention time of 839 s. The result for `COc1cccc(CNC(=O)C2CCCN(c3nc4ccccc4nc3OC)C2)c1` (stereo not given) reads 1010 s; that for `Cc1ccc(Cn2c(N3CCC(C(=O)NC4CC4)CC3)nc3ccsc3c2=O)cc1`, 783 s; that for `O=C(c1ccoc1)N1CCCCC1c1nncn1Cc1ccccc1` (stereo not given), 689 s. The result for `CCn1c(N2CCN(C(=O)Nc3cc(OC)cc(OC)c3)CC2)nc2ccccc21` reads 660 s; that for `COc1cccc(NC(=O)CN2C(=O)CC(c3cccs3)=Nc3ccccc32)c1`, 898 s.

Regarding `CCNC(=O)C1CCN(C(=O)Nc2ccc(NC(=O)Nc3ccccc3)cc2)CC1`, the RP-LC retention time came out at 658 s. On to `COc1ccc(-c2noc(CN3C(=O)COc4cc(Cl)ccc43)n2)cc1OC`, for which the RP-LC retention time turned out to be 971 s. For `CCOC(=O)c1cccc(Nc2nc(C)nc3c2CCC3)c1`, the RP-LC retention time is 654 s. The result for `CN(C)C(=O)c1[nH]c2ccccc2c1N1CCCC1=O` reads 604 s. The result for `O=c1c2ccccc2n(Cc2nc(-c3ccc(Br)cc3)no2)c(=O)n1CC1CCCO1` (stereo not given) reads 1120 s. The result for `CCCn1c(=O)c2cc(C(=O)N3CCN(c4ccccc4)CC3)nn2c2ccccc21` reads 1030 s; that for `COC(=O)c1cc(S(=O)(=O)N2CCCC2C(=O)NCc2ccccc2Cl)cn1C` (stereo not given), 845 s.

`O=C(Cc1ccccc1Cl)N1CCCC1c1nc(-c2ccccc2)no1` (stereo not given) yielded an RP-LC retention time of 1020 s.

For the compound `COc1ccc(-c2nc(N3CCSCC3)ncc2C(=O)O)cc1`, the RP-LC retention time is 854 s. The result for `Cc1cc(C)cc(Nc2nc(C)cc3nn(CC(=O)N4CCOCC4)c(=O)n23)c1` reads 601 s; that for `Cn1c(C(=O)NCCN2CCOCC2)cc2c(=O)oc3ccccc3c21`, 603 s. `Cc1ccccc1NC(=O)N1CCC(CCN)CC1`: the RP-LC retention time turned out to be 580 s.

Compound `CC1CN(c2ccc(Cl)cc2)c2nc3c(c(=O)n(CC(=O)O)c(=O)n3C)n2C1` (stereo not given) came in with an RP-LC retention time of 790 s. The result for `Cc1cc(C)n(-c2cc(NC(C)C)ncn2)n1` reads 756 s. The result for `CSc1cccc(NC(=O)c2nnn(-c3ccccc3)c2C)c1` reads 1060 s; that for `CN1CCCN(C(=O)C2CN(S(=O)(=O)c3cccnc3)CC23CCCCC3)CC1` (stereo not given), 605 s; that for `CCOC(=O)CNC(=O)Nc1ncc(-c2ccccc2)n1C`, 613 s. `Cc1ccc(CN2CCC(CNS(=O)(=O)c3ccc4c(c3)CCCC(=O)N4)CC2)cc1` returned an RP-LC retention time of 762 s.

`Cc1nnc(-c2ccc3ccn(CC(=O)NCC(C)c4ccccc4)c3c2)o1` (stereo not given): the RP-LC retention time was 793 s. On to `CC(=O)Nc1ccc2c(c1)CN(C(=O)c1ccccc1Cl)C(C(=O)N1CCCC1)C2` (stereo not given), for which the RP-LC retention time turned out to be 657 s. The result for `CCn1cnc(S(=O)(=O)N2CCC(C(=O)NCc3ccc(Cl)cc3)CC2)c1` reads 729 s; that for `CC(C)(C)C(=O)N1CCN(c2ncccc2-c2nnc(C3CC3)o2)CC1`, 760 s. The result for `CC(C)(C)C(=O)N1CCCC(c2ccnc(-c3cccc(F)c3)n2)C1` (stereo not given) reads 1130 s; that for `CN1c2ccc(F)cc2C(=O)NC12CCN(C(=O)c1ccc(Cl)cc1)CC2`, 785 s.

`O=C(NCc1cccc(C(F)(F)F)c1)c1cnc(-c2ccccc2)nc1-c1ccncc1` showed an RP-LC retention time of 934 s. The result for `CC(C)n1c(=O)sc2cc(S(=O)(=O)N3CCC(C(=O)NCc4cccs4)CC3)ccc21` reads 885 s. The result for `CCN(CC)C(=O)c1cc2c(s1)CCC(C(=O)Nc1ccc3c(c1)OCCO3)C2` (stereo not given) reads 775 s; that for `O=C(CSc1ncnc2c(-c3ccccc3)c[nH]c12)Nc1ccc2c(c1)OCO2`, 824 s; that for `O=C(NC1CCCC1)c1nnc(-c2ccc(S(=O)(=O)N3CCCC3)cc2)o1`, 855 s.

On to `CCc1nc(OCC(=O)NCc2cc(OC)ccc2OC)c2c(C)c(C)oc2n1`, for which the RP-LC retention time was found to be 971 s.

In turn, `Cc1ncsc1C1N(C2CCN(C(=O)C3CCC3)CC2)C(=O)C12CCCC2` (stereo not given) gave an RP-LC retention time of 661 s. The result for `COc1cc(OC)c(OC)cc1/C=C\c1ccnc2ccccc12` reads 679 s; that for `O=C(c1ccccc1Br)N1CCN(c2nc(CN3CCCC3)cs2)CC1`, 627 s; that for `Cc1ccc(Oc2nccn3c(=O)n(CC(=O)Nc4ccc(C(C)C)cc4)nc23)cc1`, 1030 s. The result for `CC(=O)N1CCC2(CC1)OC(=O)C(C)=C2C(=O)NC1CCN(Cc2ccccc2)CC1` reads 581 s. The result for `Cc1cc(C)cc(NC(=O)NCc2ccnc(N3CCSCC3)c2)c1` reads 660 s; that for `Cc1nn(CC(=O)NCc2ccncc2)c(=O)c2nc(-c3ccccc3)sc12`, 615 s; that for `Cc1ccccc1N1C(=O)CN(S(C)(=O)=O)CC1(C)C(=O)NCc1ccc(Cl)cc1` (stereo not given), 778 s. As to `Clc1ccccc1-c1nnc2sc(-c3ccc4ccccc4n3)nn12`, the RP-LC retention time is 1150 s. The result for `O=C(NC1CCCCC1)C1CCN(c2cnn(Cc3ccccc3)c(=O)c2)CC1` reads 793 s; that for `COc1cccc(-c2nc(-c3cccc(-c4ccnn4C)c3)no2)c1OC`, 1020 s. The result for `O=C(Cn1nc(C(=O)N2CCOCC2)c2ccccc21)NCc1ccc(F)cc1` reads 715 s; that for `Cn1nnnc1NCc1ccc2c(c1)n(C)c(=O)n2C`, 597 s; that for `COc1cccc(CN2CC(=O)N(Cc3ccc(F)cc3)c3ccccc3S2(=O)=O)c1`, 1100 s. The result for `Cc1ccc(SCC(=O)Nc2nnc(Cc3ccc4c(c3)OCO4)o2)cc1` reads 780 s; that for `CC(=O)N1c2nc(-c3ccccc3)nn2C2(CCCCC2)[C@@H]2CCCC[C@@H]21`, 1390 s. For the compound `O=C(Nc1nccs1)c1cc(Cl)sc1Cl`, the RP-LC retention time was found to be 836 s.

The compound `CCCNC(=O)C1CCCN(c2ccc(SCC(=O)Nc3ccccc3C(F)(F)F)nn2)C1` (stereo not given) showed an RP-LC retention time of 690 s. The result for `O=c1c2nnc3ccnn3c2ccn1CCc1c[nH]c2ccc(F)cc12` reads 709 s; that for `CCn1c(=O)n(CC(=O)N2CCN(C)CC2)c(=O)c2cnc(-c3ccc(Cl)cc3)nc21`, 696 s; that for `O=C(NCc1ccccn1)C1CCN(S(=O)(=O)c2cc(C(=O)N3CCCCCC3)cs2)CC1`, 638 s.

With `COC(=O)C1=CN(c2cccc(C)c2)c2ccccc2S1(=O)=O`, the RP-LC retention time is 849 s. On to `C=CCNC(=O)C1CCN(S(=O)(=O)c2cc(Cl)ccc2OCC)CC1`, for which the RP-LC retention time amounted to 767 s. The result for `O=S(=O)(c1ccc2nc(N3CCN(c4ccccc4F)CC3)ccc2c1)N1CCCC1` reads 998 s.

The values are drawn from the METLIN SMRT retention time set (Domingo-Almenara et al. 2019).
